{"source": "patent US7776366B2", "about": "“Method and nutraceutical composition for mammals” (MD's Choice, Inc., priority 2002, dated 2010)", "origin": "cited, not measured here", "settings": "within 30 minutes, in at least 3 species, via glucose transporter"}
{"smiles": "N[C@H]1C(O)O[C@H](CO)[C@@H](O)[C@@H]1O.O=S(=O)(O)O", "note": "(stereo partly shown) [Glucosamine sulphate]", "values": [{"measurement": "efficiency of active absorption from the digestive tract", "result": "over 90%"}]}
